Measured values taken from patent US20260263357A1, “PHASE SHIFTING INTRAVITREAL TAMPONADE” (Avant Sciences, Inc., priority 2023, published 2026).
Where two headings read alike, the source gives them in different places.

Experiments:
[1] = cited from earlier work
[2] = Table 5; cited from earlier work
[3] = cited from earlier work; remark: listed apart in the source
[4] = system: New Zealand white rabbits; experiment: Intraocular pressure measurements after intravitreal injection; type: in vivo, rabbit
Description: (§1) Additionally, to address concerns about biological toxicity of these compounds, intraocular pressure measurements and both scotopic a-wave, b-wave, and photopic b-wave ERGs were done on all 6 rabbits in the study, without any statistically notable adverse signals (FIG. 2-5).
Additionally, to address concerns about biological toxicity of these compounds, intraocular pressure measurements were done on all 4 rabbits in the study, without any statistically notable adverse signals.

[5] = Experimental ultrasound absorbance (amplitude attenuation coefficient); type: physicochemical
Description: In some embodiments, the compounds of Structure 1 are capable of absorbing ultrasonic wave energy. The capacity of a given chemical to convert applied ultrasound from vibrational energy into heat is termed its ultrasonic absorbance, which itself varies depending upon the initial temperature and the frequency of the applied ultrasound. Additionally, the native vitreous within biological tissues approximates that of water, which itself has an ultrasonic absorption profile; thus, there is a baseline transmission of acoustic energy through ocular tissues, and this characteristic is routinely leveraged when it comes to various forms of imaging and therapy (Southern, Australas J Ultrasound Med. 2009 February; 12 (1): 32-37). In some embodiments, a compound that can preferentially absorb ultrasound more readily than that of water has the capacity to disproportionately absorb applied ultrasonic energy versus that of vitreous within the vitreous cavity. As such absorption would lead to local increase in temperature, thus facilitate the phase shift to a gaseous state.
With reference to Table 3, a compound with a larger amplitude attenuation coefficient absorbs ultrasound more than a compound that has a lower amplitude attenuation coefficient. It is clear that each of the compounds of Structure 1 (as shown in Table 3) is orders of magnitude more likely to absorb ultrasonic energy than water/vitreous. […] Indeed, it is notable that water, the least absorptive compound shown, is not only clearly symmetric on both a rotational axis and the mirror plane, but also has some of the strongest hydrogen bond forces in all of chemistry, allowing it to “pack itself together” much more readily than the other compounds on the list.

[6] = system: New Zealand white rabbits; experiment: Fundus imaging of tamponade bubble after injection into rabbit vitreous cavity (phase shift and removal); type: in vivo; details: 8 microliters injected into rabbit vitreous cavity
Protocol: The biological safety of a compound of Structure 1 is tested within an animal model. In particular, 2,2,2-Trifluoroethyl 1,1,2,2-tetrafluoroethyl ether was tested within a New Zealand white rabbits, an animal model in line with previous retinal tamponade studies (Santos et al., Retina, 33 (1): p 120-127 (1991)).
FIG. 1A includes a set of control retinal fundus images (near-infrared images IR and corresponding color images MC) for which balanced salt solution BSS (effectively water) was injected into a rabbit vitreous cavity. […] In other words, 2,2,2-Trifluoroethyl 1,1,2,2-tetrafluoroethyl ether was empirically determined to successfully phase shift under biological conditions at around 1 week post placement, and then subsequently carried out of the body over the next 2 months. […]
FIG. 6A includes a set of control retinal fundus images (near-infrared images IR and corresponding color images MC) for which balanced salt solution BSS (effectively water) was injected into a rabbit vitreous cavity. […] In other words, 1,1,2,3,3,3-Hexafluoropropyl difluoromethyl ether was empirically determined to successfully phase shift under biological conditions at around 1-3 days post placement, and then subsequently fully carried out of the body by Day 8. […]

[7] = system: New Zealand white rabbits; experiment: Scotopic a-wave, b-wave and photopic b-wave ERGs after intravitreal injection; type: in vivo, rabbit; details: baseline and 2 months
Description: as §1

[8] = Table 1, selected fluorinated alkanes
[9] = 4 rabbits, up to about 1 month after injection, FIG. 7
[10] = Table 2, selected fluorinated ethers
[11] = 6 rabbits, up to about two months after injection, FIG. 2

SMILES	Boiling Point ([1]; Table 5)	Density [2]	Flammable? [3, 8]	Flammable? [3, 10]	Boiling Point [1, 10]	also measured
FC(C(F)(F)F)C(F)(F)OCC(F)(F)C(F)(F)C(F)(F)F (centres unmarked) [1,1,1,2,2,3,3-Heptafluoro-4-(1,1,2,3,3,3-hexafluoropropoxy)butane, reference compound]	102 °C	1.63 g/mL	–	–	–	–
FC(F)C(F)(F)C(F)(F)F [1,1,1,2,2,3,3-Heptafluoropropane]	–	–	No	–	–	Boiling Point [1, 8]: −16 °C
FCCC(F)(F)F [1,1,1,3-Tetrafluoropropane]	–	–	YES	–	–	–
FC(F)C(F)(F)C(F)F [1,1,2,2,3,3-Hexafluoropropane]	–	–	No	–	–	Boiling Point [1, 8]: 5 °C
FCC(F)(F)C(F)F [1,1,2,2,3-Pentafluropropane]	–	–	YES	–	–	Boiling Point [1, 8]: 26 °C
FC(F)C(F)(F)COCC(F)(F)C(F)F [1,1,2,2-Tetrafluoro-3-(2,2,3,3-tetrafluoropropoxy)propane, reference compound]	35 °C	1.627 g/mL	–	–	–	–
FC(F)OC(F)(F)C(F)C(F)(F)F (centres unmarked) [1,1,2,3,3,3-Hexafluoropropyl difluoromethyl ether]	47 °C	1.5 g/mL	–	No	47 °C	Intraocular pressure compared to control (Balanced Salt Solution) [4, 9]: not significantly different; Intraocular pressure relative to normal physiologic range [4, 9]: nor were their intraocular pressures outside of normal physiologic range throughout the study; Amplitude Attenuation Coefficient [5]: 3.35 db/cm-MHz; Day by which agent is fully carried out of the body ([6]; fundus images to D30): ≤ 8 days
FCCC(F)F [1,1,3-Trifluoropropane]	–	–	YES	–	–	–
CC(F)(F)OCC(F)(F)F [1,1-Difluoroethyl 2,2,2-trifluoroethyl ether]	–	–	–	YES	–	–
COC(F)C(F)(F)F (centres unmarked) [1,2,2,2-Tetrafluoroethyl methyl ether]	–	–	–	YES	–	–
FC(F)C(F)(F)OCC(F)(F)F [2,2,2-Trifluoroethyl 1,1,2,2-tetrafluoroethyl ether]	56.7 °C	1.487 g/mL	–	No	56 °C	Intraocular pressure compared to control (Balanced Salt Solution) [4, 11]: not significantly different; Intraocular pressure relative to normal physiologic range [4, 11]: nor were their intraocular pressures outside of normal physiologic range throughout the study; Amplitude Attenuation Coefficient [5]: 2.65 db/cm-MHz; Time over which agent is carried out of the body after phase shift ([6]; fundus images to D56): ~2 months; Scotopic a-wave ERG amplitude (rod and cone cells, dark-adapted) vs control (Balanced Salt Solution) ([7]; FIG. 3): no significant difference; Scotopic b-wave ERG amplitude (bipolar cells, dark-adapted) vs control (Balanced Salt Solution) ([7]; FIG. 4): no significant difference; Photopic b-wave ERG amplitude (bipolar cells, light-adapted) vs control (Balanced Salt Solution) ([7]; FIG. 5): no significant difference
FCOCF [Bis(fluoromethyl) ether]	–	–	–	YES	34 °C	–
FC(F)OCC(F)(F)C(F)(F)F [Difluoromethyl 2,2,3,3,3-pentafluoropropyl ether]	46 °C	1.46 g/mL	–	No	46 °C	Amplitude Attenuation Coefficient [5]: 0.57 db/cm-MHz
CCOC(F)(F)C(F)(F)F [Ethyl pentafluoroethyl ether]	–	–	–	YES	30 °C	–
FC(OC(F)(F)C(F)(F)C(F)(F)F)C(F)(F)F (centres unmarked) [Heptafluoropropyl 1,2,2,2-tetrafluoroethyl ether]	40 °C	1.538 g/mL	–	No	40 °C	Amplitude Attenuation Coefficient [5]: 3.58 db/cm-MHz
COC(F)(F)C(F)(F)C(F)(F)F [Heptafluoropropyl methyl ether]	–	–	–	No	34 °C	–
FC(F)(F)C(F)(F)C(F)(F)F [Perfluoropropane]	–	–	No	–	–	–
O [Water, reference compound]	–	–	–	–	–	Amplitude Attenuation Coefficient [5]: 0.002 db/cm-MHz
COC(F)(F)C(F)F [tetrafluoroethyl methyl ether]	–	–	–	YES	37 °C	–
